From patent US7973012B2, “C-phenyl glycitol compound” (Taisho Pharmaceutical Co., Ltd, priority 2006, dated 2011)

How the values were obtained:
human SGLT2 = molecular target: T1, human SGLT2 (Homo sapiens, UniProt P31639); test: Inhibition test of sodium-dependent sugar uptake in CHO-k1 cells stably expressing human SGLT2; format: cell-based; conditions: sugar uptake inhibition rate at 100 nM test compound vs control group
T1 construct: expressed in transfected cells; host or cells: CHO-k1
T1 sequence (P31639 1-672): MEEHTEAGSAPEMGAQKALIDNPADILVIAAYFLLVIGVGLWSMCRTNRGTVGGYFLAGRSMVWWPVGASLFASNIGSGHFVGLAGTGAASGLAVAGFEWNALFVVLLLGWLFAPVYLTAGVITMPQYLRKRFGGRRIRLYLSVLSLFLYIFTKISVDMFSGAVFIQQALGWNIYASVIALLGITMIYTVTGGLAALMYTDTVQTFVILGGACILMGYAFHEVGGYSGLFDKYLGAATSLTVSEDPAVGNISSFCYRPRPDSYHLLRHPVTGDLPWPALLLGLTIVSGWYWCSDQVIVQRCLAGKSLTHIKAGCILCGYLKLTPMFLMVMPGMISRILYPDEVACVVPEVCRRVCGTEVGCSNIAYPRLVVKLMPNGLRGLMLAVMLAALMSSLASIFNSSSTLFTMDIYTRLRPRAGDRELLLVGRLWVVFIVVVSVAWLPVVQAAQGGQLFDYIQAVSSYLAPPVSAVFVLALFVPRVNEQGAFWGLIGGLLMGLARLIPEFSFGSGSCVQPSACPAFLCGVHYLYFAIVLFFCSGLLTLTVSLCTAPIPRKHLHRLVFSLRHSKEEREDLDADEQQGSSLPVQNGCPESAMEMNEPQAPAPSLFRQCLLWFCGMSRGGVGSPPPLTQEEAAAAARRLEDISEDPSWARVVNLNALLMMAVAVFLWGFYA
Method: (§1) An SGLT1 sequence (NM_000343) was reverse-transcripted from human small intestinal mRNA, then amplified, and then introduced into pCMV-tag5A from Stratagene Corporation. An SGLT2 sequence (NM_003041) was prepared from human nephric mRNA as with the above method, and then introduced into pcDNA3.1+hygro from Invitrogen Corporation. Each cloned sequence was confirmed to be identical with the reported sequence.
(§2) The human SGLT1 and human SGLT2 expression vectors were transfected into CHO-k1 cells by using Lipofectamine 2000 from Invitrogen Corporation. The SGLT expression cells were incubated in the presence of Geneticin (SGLT1) or Hygromycin B (SGLT2) at a 500 μg/mL concentration to select resistant strains, and specific activity of sugar uptake was obtained as an indicator by the following system.
(§3) Cells stably expressing human SGLT1 and human SGLT2 were used for the inhibition test of sodium-dependent glucose uptake.
(§4) The cells were incubated in a pretreatment buffer A (200 μL for SGLT1, and 2 mL for SGLT2) for 20 minutes. The pretreatment buffer was removed and an uptake buffer B (75 μL for SGLT1, and 200 μL for SGLT2) containing a test compound was added to conduct an uptake reaction at 37° C. for 30 minutes (SGLT1) or an hour (SGLT2). After the reaction, the cells were washed with a washing buffer C twice (200 μL for SGLT1, and 2 mL for SGLT2), and then dissolved in a 0.2 M solution of NaOH (75 μL for SGLT1, and 400 μL for SGLT2). After a liquid scintilater was added thereto and mixed sufficiently, radioactivity was measured with microBETA (SGLT1) or a liquid scintillation counter from Beckman Coulter, Inc (SGLT2). As a control group, an uptake buffer containing no test compound was prepared. In addition, as the basic uptake buffer, an uptake buffer B containing choline chloride instead of NaCl was prepared. • A pretreatment buffer A: 140 mM choline chloride, 2 mM KCl, 1 mM CaCl2, 1 mM MgCl2, 10 mM HEPES/5 mM Tris, pH 7.4. • An uptake buffer B: 1 mM of methyl α-D-glucopyranoside containing [^14C]methyl α-D-glucopyranoside, 140 mM NaCl, 2 mM KCl, 1 mM CaCl2, 1 mM MgCl2, 10 mM HEPES/5 mM Tris, pH 7.4. • A washing buffer C: 10 mM methyl α-D-glucopyranoside, 140 mM choline chloride, 2 mM KCl, 1 mM CaCl2, 1 mM MgCl2, 10 mM HEPES/5 mM Tris, pH 7.4.
(§5) In order to obtain IC50 values, test compounds having adequate 6 concentrations were used and the test compound concentrations (IC50 values) at which sugar uptake is inhibited by 50% in comparison with the amount of sugar uptake (100%) of the control group were calculated.
(§6) In addition, the sugar uptake inhibition rates at 100 nM concentration of the test compound in comparison with the control group are shown in Table 7.

human SGLT1 = molecular target: T2, human SGLT1 (Homo sapiens, UniProt P13866); test: Inhibition test of sodium-dependent sugar uptake in CHO-k1 cells stably expressing human SGLT1; format: cell-based; conditions: sugar uptake inhibition rate at 100 nM test compound vs control group
T2 construct: expressed in transfected cells; host or cells: CHO-k1
T2 sequence (P13866 1-664): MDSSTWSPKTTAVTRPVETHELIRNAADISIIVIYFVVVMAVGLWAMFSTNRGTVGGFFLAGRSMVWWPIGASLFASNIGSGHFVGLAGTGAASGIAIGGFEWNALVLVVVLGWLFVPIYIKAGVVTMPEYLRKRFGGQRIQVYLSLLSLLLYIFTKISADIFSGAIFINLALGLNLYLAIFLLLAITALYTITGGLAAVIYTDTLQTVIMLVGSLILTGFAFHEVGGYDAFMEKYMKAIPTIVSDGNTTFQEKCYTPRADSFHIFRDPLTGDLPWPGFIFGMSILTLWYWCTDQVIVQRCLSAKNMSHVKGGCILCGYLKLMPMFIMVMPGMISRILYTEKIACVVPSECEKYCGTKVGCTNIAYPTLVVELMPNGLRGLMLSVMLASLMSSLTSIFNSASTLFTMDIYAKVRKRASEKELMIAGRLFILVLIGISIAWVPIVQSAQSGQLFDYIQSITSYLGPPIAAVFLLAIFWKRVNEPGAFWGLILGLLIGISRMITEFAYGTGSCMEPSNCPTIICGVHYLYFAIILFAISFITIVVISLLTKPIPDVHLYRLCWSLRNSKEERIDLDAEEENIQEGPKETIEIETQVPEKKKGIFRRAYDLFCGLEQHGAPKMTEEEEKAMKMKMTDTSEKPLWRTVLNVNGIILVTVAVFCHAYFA
Method: as §1, §2, §3, §4, §5, §6

SMILES	SGLT2 % inhibition at 100 nM (human SGLT2) [%]	SGLT1 % inhibition at 100 nM (human SGLT1) [%]
Cc1cc(O)c([C@@H]2O[C@H](CO)[C@@H](O)[C@H](O)[C@H]2O)cc1Cc1ccc(CCNC(=O)NCc2ccco2)cc1 [Compound 42]	87	78
Cc1cc(O)c([C@@H]2O[C@H](CO)[C@@H](O)[C@H](O)[C@H]2O)cc1Cc1ccc(CCNC(=O)NC(CO)C(C)C)cc1 (stereo partly drawn) [Compound 43]	86	77
Cc1cc(O)c(C2OC(CO)C(O)C(O)C2O)cc1Cc1ccc(CCNC(=O)NC(CO)CC(C)C)cc1 (stereo not drawn) [Compound 46]	91	74
CSCC[C@@H](CO)NC(=O)NCCc1ccc(Cc2cc([C@@H]3O[C@H](CO)[C@@H](O)[C@H](O)[C@H]3O)c(O)cc2C)cc1 [Compound 47]	89	73
Cc1cc(O)c([C@@H]2O[C@H](CO)[C@@H](O)[C@H](O)[C@H]2O)cc1Cc1ccc(CCNC(=O)N[C@H](CO)Cc2ccccc2)cc1 [Compound 48]	87	73
CCC(CO)NC(=O)NCCc1ccc(Cc2cc([C@@H]3O[C@H](CO)[C@@H](O)[C@H](O)[C@H]3O)c(O)cc2C)cc1 (stereo partly drawn) [Compound 50]	77	71
COc1cccc(CCNC(=O)NCCc2ccc(Cc3cc([C@@H]4O[C@H](CO)[C@@H](O)[C@H](O)[C@H]4O)c(O)cc3C)cc2)c1 [Compound 51]	84	71
Cc1cc(O)c([C@@H]2O[C@H](CO)[C@@H](O)[C@H](O)[C@H]2O)cc1Cc1ccc(CCNC(=O)NCCc2ccc(F)cc2)cc1 [Compound 52]	84	71
Cc1cc(O)c([C@@H]2O[C@H](CO)[C@@H](O)[C@H](O)[C@H]2O)cc1Cc1ccc(CCNC(=O)NCC(c2ccccc2)c2ccccc2)cc1 [Compound 53]	74	70
COC(=O)C(NC(=O)NCCc1ccc(Cc2cc(C3OC(CO)C(O)C(O)C3O)c(O)cc2C)cc1)C(C)(C)C (stereo not drawn) [Compound 54]	73	79
COc1ccc(CCNC(=O)NCCc2ccc(Cc3cc([C@@H]4O[C@H](CO)[C@@H](O)[C@H](O)[C@H]4O)c(O)cc3C)cc2)cc1OC [Compound 55]	69	69
CCCNC(=O)NCCc1ccc(Cc2cc([C@@H]3O[C@H](CO)[C@@H](O)[C@H](O)[C@H]3O)c(O)cc2C)cc1 [Compound 56]	77	68
COc1ccc(CCN(C)C(=O)NCCc2ccc(Cc3cc([C@@H]4O[C@H](CO)[C@@H](O)[C@H](O)[C@H]4O)c(O)cc3C)cc2)cc1OC [Compound 57]	51	68
Cc1cc(O)c([C@@H]2O[C@H](CO)[C@@H](O)[C@H](O)[C@H]2O)cc1Cc1ccc(CCNC(=O)N(CC(C)C)CC(C)C)cc1 [Compound 59]	86	67
Cc1cc(O)c([C@@H]2O[C@H](CO)[C@@H](O)[C@H](O)[C@H]2O)cc1Cc1ccc(CCNC(=O)NC(Cc2ccccc2)C(N)=O)cc1 (stereo partly drawn) [Compound 60]	91	66
Cc1cc(O)c([C@@H]2O[C@H](CO)[C@@H](O)[C@H](O)[C@H]2O)cc1Cc1ccc(CCNC(=O)NCc2cc3ccccc3s2)cc1 [Compound 61]	95	65
Cc1cc(O)c([C@@H]2O[C@H](CO)[C@@H](O)[C@H](O)[C@H]2O)cc1Cc1ccc(CCNC(=O)NCCCCc2ccccc2)cc1 [Compound 62]	79	65

Further lines, results first:

SGLT2 % inhibition at 100 nM (human SGLT2) [%]	SGLT1 % inhibition at 100 nM (human SGLT1) [%]	SMILES
81	63	Cc1cc(O)c([C@@H]2O[C@H](CO)[C@@H](O)[C@H](O)[C@H]2O)cc1Cc1ccc(CCNC(=O)NCCc2ccc(O)cc2)cc1 [Compound 63]
76	62	Cc1cc(O)c([C@@H]2O[C@H](CO)[C@@H](O)[C@H](O)[C@H]2O)cc1Cc1ccc(CCNC(=O)NCC2OCCO2)cc1 [Compound 64]
76	62	Cc1cc(O)c([C@@H]2O[C@H](CO)[C@@H](O)[C@H](O)[C@H]2O)cc1Cc1ccc(CCNC(=O)NCC2CCCO2)cc1 (stereo partly drawn) [Compound 65]
83	62	Cc1cc(O)c([C@@H]2O[C@H](CO)[C@@H](O)[C@H](O)[C@H]2O)cc1Cc1ccc(CCNC(=O)NCC(O)COc2ccccc2)cc1 (stereo partly drawn) [Compound 66]
82	61	Cc1cc(O)c([C@@H]2O[C@H](CO)[C@@H](O)[C@H](O)[C@H]2O)cc1Cc1ccc(CCNC(=O)NCCN2CCCCC2)cc1 [Compound 67]
83	60	Cc1cc(O)c([C@@H]2O[C@H](CO)[C@@H](O)[C@H](O)[C@H]2O)cc1Cc1ccc(CCNC(=O)NCc2ccccc2)cc1 [Compound 68]
86	59	Cc1cc(O)c([C@@H]2O[C@H](CO)[C@@H](O)[C@H](O)[C@H]2O)cc1Cc1ccc(CCNC(=O)NCCc2ccccc2)cc1 [Compound 71]
87	78	Cc1cc(O)c([C@@H]2O[C@H](CO)[C@@H](O)[C@H](O)[C@H]2O)cc1Cc1ccc(CCNC(=O)NC2C3CC4CC(C3)CC2C4)cc1 (stereo partly drawn) [Compound 123]
90	68	Cc1cc(O)c([C@@H]2O[C@H](CO)[C@@H](O)[C@H](O)[C@H]2O)cc1Cc1ccc(CCNC(=O)NC2CCCC2)cc1 [Compound 125]
84	65	Cc1cc(O)c([C@@H]2O[C@H](CO)[C@@H](O)[C@H](O)[C@H]2O)cc1Cc1ccc(CCNC(=O)NC2Cc3ccccc3C2)cc1 [Compound 138]
